Results taken from PubChem BioAssay (NCI).
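GI50 marks 50% less growth. Definition used: TGI = concentration required for complete inhibition of growth.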

How the values were obtained:
Test in all cases: DTP human tumour cell line panel, 384-well format
LOX IMVI melanoma = system: LOX IMVI melanoma
OVCAR-5 ovarian = system: OVCAR-5 ovarian
SK-MEL-2 melanoma = system: SK-MEL-2 melanoma
OVCAR-4 ovarian = system: OVCAR-4 ovarian
NCI-H522 lung = system: NCI-H522 lung
CCRF-CEM leukemia = system: CCRF-CEM leukemia
HOP-62 NSCLC = system: HOP-62 NSCLC
IGROV1 ovarian = system: IGROV1 ovarian
BT-549 breast = system: BT-549 breast
NCI-H23 lung = system: NCI-H23 lung
COLO 205 colon = system: COLO 205 colon
UACC-62 melanoma = system: UACC-62 melanoma
CAKI-1 renal = system: CAKI-1 renal
HCT-15 colon = system: HCT-15 colon
SR leukemia = system: SR leukemia
SF-539 CNS = system: SF-539 CNS
MCF7 breast = system: MCF7 breast
RXF 393 renal = system: RXF 393 renal
NCI/ADR-RES ovarian = system: NCI/ADR-RES ovarian
SNB-75 CNS = system: SNB-75 CNS
SNB-19 CNS = system: SNB-19 CNS
HL-60(TB) leukemia = system: HL-60(TB) leukemia
RPMI-8226 leukemia = system: RPMI-8226 leukemia
HT29 colon = system: HT29 colon
ACHN renal = system: ACHN renal
TK-10 renal = system: TK-10 renal
MDA-MB-231 breast = system: MDA-MB-231 breast
NCI-H226 lung = system: NCI-H226 lung
SN12C renal = system: SN12C renal
MDA-MB-468 breast = system: MDA-MB-468 breast
NCI-H322M lung = system: NCI-H322M lung
SF-268 CNS = system: SF-268 CNS
HS 578T breast = system: HS 578T breast
HCT-116 colon = system: HCT-116 colon
DU-145 prostate = system: DU-145 prostate
PC-3 prostate = system: PC-3 prostate
OVCAR-8 ovarian = system: OVCAR-8 ovarian
SW-620 colon = system: SW-620 colon
UACC-257 melanoma = system: UACC-257 melanoma
SK-MEL-28 melanoma = system: SK-MEL-28 melanoma
SK-OV-3 ovarian = system: SK-OV-3 ovarian
SF-295 CNS = system: SF-295 CNS
A498 renal = system: A498 renal
U251 glioblastoma = system: U251 glioblastoma
MDA-MB-435 melanoma = system: MDA-MB-435 melanoma
K-562 leukemia = system: K-562 leukemia
786-0 renal = system: 786-0 renal

For `C/C=C1\NC(=O)[C@H]2CSSCCC=C[C@H](CC(=O)N[C@H](C(C)C)C(=O)N2)OC(=O)[C@H](C(C)C)NC1=O`, the GI50 (LOX IMVI melanoma) was less than 10 nM, the TGI (LOX IMVI melanoma) was less than 10 nM and the GI50 (OVCAR-5 ovarian) was less than 10 nM. For the same compound, the TGI (OVCAR-5 ovarian) was less than 10 nM, the GI50 (SK-MEL-2 melanoma) was less than 10 nM and the TGI (SK-MEL-2 melanoma) was less than 10 nM. For the same compound, the GI50 (OVCAR-4 ovarian) was less than 10 nM, the TGI (OVCAR-4 ovarian) was less than 10 nM and the GI50 (NCI-H522 lung) was less than 10 nM. For the same compound, the TGI (NCI-H522 lung) was less than 10 nM, the GI50 (CCRF-CEM leukemia) was less than 10 nM and the TGI (CCRF-CEM leukemia) was less than 10 nM. The GI50 (HOP-62 NSCLC) was less than 10 nM, the TGI (HOP-62 NSCLC) was less than 10 nM and the GI50 (IGROV1 ovarian) was less than 10 nM. The TGI (IGROV1 ovarian) was less than 10 nM, the GI50 (BT-549 breast) was less than 10 nM and the TGI (BT-549 breast) was less than 10 nM. The GI50 (NCI-H23 lung) was less than 10 nM, the TGI (NCI-H23 lung) was less than 10 nM and the GI50 (COLO 205 colon) was less than 10 nM. For the same compound, the TGI (COLO 205 colon) was less than 10 nM, the GI50 (UACC-62 melanoma) was less than 10 nM and the TGI (UACC-62 melanoma) was less than 10 nM. The GI50 (CAKI-1 renal) was less than 10 nM, the TGI (CAKI-1 renal) was less than 10 nM and the GI50 (HCT-15 colon) was 82.9 nM. It also gave a TGI (HCT-15 colon) of 806 nM, a GI50 (SR leukemia) of less than 10 nM and a TGI (SR leukemia) of less than 10 nM. The GI50 (SF-539 CNS) was less than 10 nM, the TGI (SF-539 CNS) was less than 10 nM and the GI50 (MCF7 breast) was less than 10 nM. For the same compound, the TGI (MCF7 breast) was less than 10 nM, the GI50 (RXF 393 renal) was less than 10 nM and the TGI (RXF 393 renal) was less than 10 nM. For the same compound, the GI50 (NCI/ADR-RES ovarian) was 2850 nM, the TGI (NCI/ADR-RES ovarian) was 13800 nM and the GI50 (SNB-75 CNS) was less than 10 nM. It also gave a TGI (SNB-75 CNS) of less than 10 nM, a GI50 (SNB-19 CNS) of less than 10 nM and a TGI (SNB-19 CNS) of less than 10 nM. For the same compound, the GI50 (HL-60(TB) leukemia) was less than 10 nM, the TGI (HL-60(TB) leukemia) was less than 10 nM and the GI50 (RPMI-8226 leukemia) was less than 10 nM. It also gave a TGI (RPMI-8226 leukemia) of less than 10 nM, a GI50 (HT29 colon) of less than 10 nM and a TGI (HT29 colon) of less than 10 nM. For the same compound, the GI50 (ACHN renal) was less than 11.9 nM, the TGI (ACHN renal) was 23.3 nM and the GI50 (TK-10 renal) was less than 10 nM. It also gave a TGI (TK-10 renal) of less than 18.1 nM, a GI50 (MDA-MB-231 breast) of less than 10 nM and a TGI (MDA-MB-231 breast) of less than 10 nM. It also gave a GI50 (NCI-H226 lung) of less than 10 nM, a TGI (NCI-H226 lung) of 19.2 nM and a GI50 (SN12C renal) of less than 10 nM. The TGI (SN12C renal) was less than 10 nM, the GI50 (MDA-MB-468 breast) was less than 10 nM and the TGI (MDA-MB-468 breast) was less than 10 nM. It also gave a GI50 (NCI-H322M lung) of less than 10 nM, a TGI (NCI-H322M lung) of less than 10 nM and a GI50 (SF-268 CNS) of less than 10 nM. The TGI (SF-268 CNS) was less than 10 nM, the GI50 (HS 578T breast) was less than 10 nM and the TGI (HS 578T breast) was less than 10 nM. It also gave a GI50 (HCT-116 colon) of less than 10 nM, a TGI (HCT-116 colon) of less than 10 nM and a GI50 (DU-145 prostate) of less than 10 nM. For the same compound, the TGI (DU-145 prostate) was less than 10 nM, the GI50 (PC-3 prostate) was less than 10 nM and the TGI (PC-3 prostate) was less than 10 nM. For the same compound, the GI50 (OVCAR-8 ovarian) was less than 10 nM, the TGI (OVCAR-8 ovarian) was less than 10 nM and the GI50 (SW-620 colon) was less than 10 nM. It also gave a TGI (SW-620 colon) of less than 10 nM, a GI50 (UACC-257 melanoma) of less than 10 nM and a TGI (UACC-257 melanoma) of less than 10 nM. For the same compound, the GI50 (SK-MEL-28 melanoma) was less than 10 nM, the TGI (SK-MEL-28 melanoma) was less than 10 nM and the GI50 (SK-OV-3 ovarian) was less than 10 nM. It also gave a TGI (SK-OV-3 ovarian) of less than 10 nM, a GI50 (SF-295 CNS) of less than 10 nM and a TGI (SF-295 CNS) of less than 10 nM. It also gave a GI50 (A498 renal) of less than 10 nM, a TGI (A498 renal) of less than 10 nM and a GI50 (U251 glioblastoma) of less than 10 nM. For the same compound, the TGI (U251 glioblastoma) was less than 10 nM, the GI50 (MDA-MB-435 melanoma) was less than 10 nM and the TGI (MDA-MB-435 melanoma) was less than 10 nM. The GI50 (K-562 leukemia) was less than 10 nM, the TGI (K-562 leukemia) was less than 10 nM and the GI50 ([…]-0 renal) was less than 10 nM. It also gave a TGI (786-0 renal) of less than 14.9 nM.
